By CC50 is commonly meant the concentration that lowers cell viability or growth by half. In general, EC50 refers to the concentration giving half of the maximal effect. The AC50 is the concentration at which the activity in the assay is half-maximal.

Results on six molecules are retold here after ChEMBL document CHEMBL1201862, “PubChem BioAssay data set” (2004).

Calls of active or inactive are those of the source.

The target of assay [1] is T1, Runt-related transcription factor 1/Core-binding factor subunit beta (Homo sapiens, UniProt Q01196+Q13951). Kind of assay: inhibitors of RUNX1 Runt–CBFb-SMMHC binding, primary screen, biochemical, FRET, Cerulean-Runt, Venus-CBFb-SMMHC, uHTS (AID 1434).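 Further: partner is the CBFb-SMMHC leukemia fusion protein rather than wild-type CBFb.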 The assay is classed as protein assay.
T1 sequence (Q01196 whole entry, the tested form may be a part): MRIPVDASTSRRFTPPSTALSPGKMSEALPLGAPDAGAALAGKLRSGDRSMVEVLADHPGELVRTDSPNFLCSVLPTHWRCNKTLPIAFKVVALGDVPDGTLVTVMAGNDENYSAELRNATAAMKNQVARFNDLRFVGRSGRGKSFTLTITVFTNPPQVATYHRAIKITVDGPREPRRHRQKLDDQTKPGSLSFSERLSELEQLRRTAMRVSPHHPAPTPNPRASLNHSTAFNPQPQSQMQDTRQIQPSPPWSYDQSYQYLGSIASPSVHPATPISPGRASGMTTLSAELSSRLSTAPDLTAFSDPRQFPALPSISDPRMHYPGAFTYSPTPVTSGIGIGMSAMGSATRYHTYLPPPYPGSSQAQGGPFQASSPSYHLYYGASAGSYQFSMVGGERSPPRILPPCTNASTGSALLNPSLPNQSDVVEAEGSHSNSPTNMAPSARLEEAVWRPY
T1 sequence (Q13951 whole entry, the tested form may be a part): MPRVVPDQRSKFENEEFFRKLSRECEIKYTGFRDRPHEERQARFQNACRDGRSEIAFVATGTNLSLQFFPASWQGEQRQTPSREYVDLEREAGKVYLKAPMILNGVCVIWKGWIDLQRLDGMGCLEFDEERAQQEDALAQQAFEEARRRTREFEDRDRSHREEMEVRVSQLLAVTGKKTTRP
The target in assay [2] is T1, Runt-related transcription factor 1/Core-binding factor subunit beta. Description: inhibitors of RUNX1 Runt–CBFb-SMMHC binding, biochemical, TR-FRET (AID 1438). The assay is classed as protein assay. On the technique in general: TR-FRET usually uses a lanthanide donor and a delayed reading to cut background.
Assay [3] has as its target Induced myeloid leukemia cell differentiation protein Mcl-1 (Homo sapiens, UniProt Q07820). The assay is classed as functional.
A further assay deals with SUMO-activating enzyme (Homo sapiens, UniProt Q9UBT2). Description: SUMOylation inhibitor hit validation, confirmation, SUMOylation inhibitor project, biochemical, AlphaScreen (AID 2018). The assay is classed as functional. Background: Alpha assays give light when donor and acceptor beads are brought close together.
The nature of assay [4]: HEp-2 cell cytotoxicity, dose response, cytotoxicity control for RSV inhibitor project, HTS (AID 2410). The assay is classed as functional. As to conditions: human respiratory syncytial virus.
Assay [5] deals with T2, Cannabinoid receptor 1 (Homo sapiens, UniProt P21554). Description: SAR analysis of antagonists of the Cannabinoid Receptor 1 using an Image-Based Assay - Set 4. [Related pubchem assays (depositor defined):AID2013, AID2026]. The assay is classed as functional.
T2 sequence (P21554 whole entry): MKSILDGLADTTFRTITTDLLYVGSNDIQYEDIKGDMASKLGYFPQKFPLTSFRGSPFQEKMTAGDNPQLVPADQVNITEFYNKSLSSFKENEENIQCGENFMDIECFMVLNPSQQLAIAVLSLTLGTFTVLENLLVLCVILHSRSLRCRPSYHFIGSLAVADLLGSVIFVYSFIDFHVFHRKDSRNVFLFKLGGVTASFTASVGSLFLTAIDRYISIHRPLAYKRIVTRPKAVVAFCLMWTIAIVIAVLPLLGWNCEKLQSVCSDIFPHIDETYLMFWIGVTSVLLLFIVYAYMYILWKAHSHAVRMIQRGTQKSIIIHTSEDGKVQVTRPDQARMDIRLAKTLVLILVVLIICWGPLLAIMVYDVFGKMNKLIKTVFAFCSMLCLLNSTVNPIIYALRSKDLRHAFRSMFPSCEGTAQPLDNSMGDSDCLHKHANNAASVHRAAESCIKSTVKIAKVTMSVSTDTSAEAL
Assay [6] addresses T3, Cannabinoid receptor 2 (Homo sapiens, UniProt P34972). Description: SAR analysis of antagonists of the Cannabinoid Receptor 2 using an Image-Based Assay - Set 3. [Related pubchem assays (depositor defined):AID2013, AID2026]. The assay is classed as functional.
Assay [7] concerns the target T3, Cannabinoid receptor 2. Kind of assay: SAR analysis of agonists of the Cannabinoid Receptor 2 using an Image-Based Assay - Set 3. [Related pubchem assays (depositor defined):AID2013, AID2026]. The assay is classed as functional.
In assay [8] the target is G-protein coupled receptor 55 (Homo sapiens, UniProt Q9Y2T6). Description: SAR Analysis of Selective Antagonists of GPR55 using an Image-Based Assay - Set 4. [Related pubchem assays (depositor defined):AID2013, AID2026]. The assay is classed as functional.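 Further: antagonism of response to 5 µM lysophosphatidylinositol agonist.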
Assay [9] concerns the target T4, Probable nicotinate-nucleotide adenylyltransferase (Staphylococcus aureus (strain N315), UniProt P65502). The assay is classed as functional, Staphylococcus aureus subsp. aureus N315.
For assay [10], the target named is T5, G-protein coupled receptor 35 (Homo sapiens, UniProt Q9HC97). Description: SAR analysis of Agonists of the GPR35 Receptor using an Image-Based Assay - Set 4. [Related pubchem assays (depositor defined):AID2013, AID2026]. The assay is classed as functional.
T5 sequence (Q9HC97 whole entry): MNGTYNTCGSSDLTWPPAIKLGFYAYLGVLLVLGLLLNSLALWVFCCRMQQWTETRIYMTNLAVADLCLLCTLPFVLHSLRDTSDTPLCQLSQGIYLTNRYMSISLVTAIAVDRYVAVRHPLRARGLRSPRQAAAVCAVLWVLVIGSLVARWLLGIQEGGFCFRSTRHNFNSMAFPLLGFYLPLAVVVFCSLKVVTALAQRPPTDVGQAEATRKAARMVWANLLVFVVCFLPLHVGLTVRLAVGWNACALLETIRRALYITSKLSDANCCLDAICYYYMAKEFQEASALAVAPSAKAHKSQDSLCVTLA
Assay [11] concerns the target T4, Probable nicotinate-nucleotide adenylyltransferase. The assay is classed as functional, Staphylococcus aureus subsp. aureus N315. The settings on record: read-out: IC50_Mean.
Assay [12] concerns the target T2, Cannabinoid receptor 1. Description: SAR analysis of agonists of the Cannabinoid Receptor 1 using an Image-Based Assay - Set 4. [Related pubchem assays (depositor defined):AID2013, AID2026]. The assay is classed as functional.
In assay [13] the target is T5, G-protein coupled receptor 35. Kind of assay: SAR analysis of Antagonists of the GPR35 Receptor using an Image-Based Assay - Set 6. [Related pubchem assays (depositor defined):AID2013, AID2026]. The assay is classed as functional.
The target in assay [14] is T6, Replicative DNA helicase DnaB (Mycobacterium tuberculosis, UniProt P9WMR3).
T6 sequence (P9WMR3 whole entry): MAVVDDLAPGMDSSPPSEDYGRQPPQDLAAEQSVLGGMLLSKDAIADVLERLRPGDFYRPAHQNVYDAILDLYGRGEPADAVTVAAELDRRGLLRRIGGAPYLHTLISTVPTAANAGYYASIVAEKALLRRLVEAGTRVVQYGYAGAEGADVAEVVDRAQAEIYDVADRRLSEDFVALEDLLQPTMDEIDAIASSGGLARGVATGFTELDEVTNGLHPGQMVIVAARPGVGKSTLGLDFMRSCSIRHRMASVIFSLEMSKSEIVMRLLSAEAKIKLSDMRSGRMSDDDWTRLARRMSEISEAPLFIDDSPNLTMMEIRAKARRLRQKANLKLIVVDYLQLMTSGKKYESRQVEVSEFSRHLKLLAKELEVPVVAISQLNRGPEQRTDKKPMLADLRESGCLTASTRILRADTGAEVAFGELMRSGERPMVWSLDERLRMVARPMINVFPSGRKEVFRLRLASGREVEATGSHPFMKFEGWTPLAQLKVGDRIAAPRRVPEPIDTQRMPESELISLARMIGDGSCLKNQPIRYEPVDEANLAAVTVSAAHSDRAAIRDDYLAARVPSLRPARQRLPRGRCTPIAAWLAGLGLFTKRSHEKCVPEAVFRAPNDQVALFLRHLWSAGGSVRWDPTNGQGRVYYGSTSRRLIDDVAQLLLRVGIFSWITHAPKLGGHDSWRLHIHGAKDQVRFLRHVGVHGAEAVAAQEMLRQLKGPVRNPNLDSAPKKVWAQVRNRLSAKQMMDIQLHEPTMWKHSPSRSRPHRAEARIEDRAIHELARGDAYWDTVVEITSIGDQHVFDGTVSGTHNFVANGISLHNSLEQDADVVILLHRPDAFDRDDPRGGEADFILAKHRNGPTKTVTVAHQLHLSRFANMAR
Kind of assay: DnaB intein splicing inhibitors, dose response, biochemical, cell-free fluorescence (AID 449749). The assay is classed as functional.

Assay [15] can be described thus: Luminescence Cell-Based Dose Retest to Confirm Inhibitors of Cancer Stem Cells. [Related pubchem assays (depositor defined):AID2717, AID2721]. The assay is classed as functional. The settings on record: Homo sapiens.
Assay [16] deals with T7, Fatty acid synthase (Homo sapiens, UniProt P49327). Kind of assay: FAS thioesterase domain inhibitors, dose response, biochemical, kinetic fluorescence intensity (AID 624326).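 Further: rate of fluorescence rise from hydrolysis of a fluorogenic O-methyl fluorescein ester substrate.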 The assay is classed as functional.
T7 sequence (P49327 whole entry, the tested form may be a part): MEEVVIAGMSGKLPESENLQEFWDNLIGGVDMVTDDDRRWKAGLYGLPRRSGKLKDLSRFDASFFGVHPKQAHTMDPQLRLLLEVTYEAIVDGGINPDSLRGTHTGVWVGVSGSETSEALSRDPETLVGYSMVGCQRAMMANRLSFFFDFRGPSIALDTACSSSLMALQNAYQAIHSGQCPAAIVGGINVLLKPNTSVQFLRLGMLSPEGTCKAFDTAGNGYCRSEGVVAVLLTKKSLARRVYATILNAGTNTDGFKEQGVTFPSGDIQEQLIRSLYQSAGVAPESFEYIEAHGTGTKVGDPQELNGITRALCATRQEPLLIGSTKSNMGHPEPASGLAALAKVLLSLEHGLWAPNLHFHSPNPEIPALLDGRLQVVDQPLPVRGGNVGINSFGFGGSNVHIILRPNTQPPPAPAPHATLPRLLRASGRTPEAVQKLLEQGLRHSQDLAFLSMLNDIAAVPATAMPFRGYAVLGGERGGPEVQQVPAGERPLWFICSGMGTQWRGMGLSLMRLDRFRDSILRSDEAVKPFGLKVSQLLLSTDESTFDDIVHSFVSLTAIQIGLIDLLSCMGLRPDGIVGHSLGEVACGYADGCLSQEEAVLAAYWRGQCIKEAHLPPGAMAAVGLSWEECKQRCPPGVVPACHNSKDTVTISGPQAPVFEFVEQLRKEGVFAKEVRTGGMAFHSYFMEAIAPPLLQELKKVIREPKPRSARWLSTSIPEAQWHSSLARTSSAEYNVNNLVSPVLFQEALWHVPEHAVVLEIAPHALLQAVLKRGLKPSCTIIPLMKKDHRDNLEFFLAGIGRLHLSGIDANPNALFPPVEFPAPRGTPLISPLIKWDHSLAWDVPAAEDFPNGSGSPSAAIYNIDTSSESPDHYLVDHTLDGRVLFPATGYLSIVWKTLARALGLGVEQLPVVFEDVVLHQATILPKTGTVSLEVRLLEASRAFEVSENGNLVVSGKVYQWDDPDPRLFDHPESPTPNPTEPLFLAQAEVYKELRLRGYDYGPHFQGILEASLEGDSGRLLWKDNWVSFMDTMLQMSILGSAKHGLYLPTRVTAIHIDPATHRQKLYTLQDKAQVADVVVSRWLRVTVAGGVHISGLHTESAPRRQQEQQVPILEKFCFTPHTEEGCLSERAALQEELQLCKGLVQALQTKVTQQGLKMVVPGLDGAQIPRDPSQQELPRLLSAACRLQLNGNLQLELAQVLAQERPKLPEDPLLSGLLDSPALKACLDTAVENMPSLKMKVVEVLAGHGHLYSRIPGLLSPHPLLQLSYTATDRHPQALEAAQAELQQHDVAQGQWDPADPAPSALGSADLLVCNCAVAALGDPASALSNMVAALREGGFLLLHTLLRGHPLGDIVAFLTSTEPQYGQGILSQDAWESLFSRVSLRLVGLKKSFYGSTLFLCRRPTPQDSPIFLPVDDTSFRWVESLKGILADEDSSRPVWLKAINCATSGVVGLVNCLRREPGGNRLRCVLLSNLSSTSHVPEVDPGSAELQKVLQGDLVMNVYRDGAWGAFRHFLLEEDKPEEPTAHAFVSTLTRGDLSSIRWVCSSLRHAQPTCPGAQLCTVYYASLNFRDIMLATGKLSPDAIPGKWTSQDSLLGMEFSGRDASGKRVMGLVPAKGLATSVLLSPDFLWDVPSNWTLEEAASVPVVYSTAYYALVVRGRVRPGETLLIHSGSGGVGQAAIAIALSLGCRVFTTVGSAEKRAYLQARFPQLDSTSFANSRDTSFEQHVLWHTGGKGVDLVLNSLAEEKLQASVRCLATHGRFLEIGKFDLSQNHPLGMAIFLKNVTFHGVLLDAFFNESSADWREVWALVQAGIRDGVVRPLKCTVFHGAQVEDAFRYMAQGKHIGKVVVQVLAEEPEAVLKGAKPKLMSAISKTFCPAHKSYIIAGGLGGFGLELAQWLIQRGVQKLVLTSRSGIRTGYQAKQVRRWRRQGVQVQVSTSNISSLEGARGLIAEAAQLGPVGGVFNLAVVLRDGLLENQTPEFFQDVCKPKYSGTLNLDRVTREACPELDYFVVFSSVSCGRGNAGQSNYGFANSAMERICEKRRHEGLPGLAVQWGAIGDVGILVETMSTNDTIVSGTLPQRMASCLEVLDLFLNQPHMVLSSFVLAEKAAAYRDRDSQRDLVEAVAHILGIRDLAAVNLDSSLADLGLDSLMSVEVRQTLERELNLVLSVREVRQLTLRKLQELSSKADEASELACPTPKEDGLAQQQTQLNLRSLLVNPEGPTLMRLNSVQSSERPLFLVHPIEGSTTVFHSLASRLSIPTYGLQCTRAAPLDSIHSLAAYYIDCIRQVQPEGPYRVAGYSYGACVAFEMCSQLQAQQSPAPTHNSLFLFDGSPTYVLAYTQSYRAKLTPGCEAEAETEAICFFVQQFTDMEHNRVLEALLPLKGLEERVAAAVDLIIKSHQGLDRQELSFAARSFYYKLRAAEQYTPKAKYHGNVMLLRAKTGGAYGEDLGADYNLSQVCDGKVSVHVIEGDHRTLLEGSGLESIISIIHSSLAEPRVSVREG
Assay [17] concerns the target T7, Fatty acid synthase. Description: FAS thioesterase domain inhibitors, dose response, biochemical, endpoint fluorescence intensity, uHTS hits (AID 624327).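 Further: fluorescence from hydrolysis of an O-methyl fluorescein acyl ester substrate by the enzyme.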 The assay is classed as functional.
Assay [18] is described as follows: Intein inhibitors as potential Tuberculosis drugs, a cytotoxicity screen. [Related pubchem assays (depositor defined):AID2221, AID2223, AID434968, AID435010, AID449749, AID449750, AID489010]. The assay is classed as functional.
For a further assay, the target named is T8, Protein RecA (Mycobacterium tuberculosis, UniProt P9WHJ3).
T8 sequence (P9WHJ3 whole entry): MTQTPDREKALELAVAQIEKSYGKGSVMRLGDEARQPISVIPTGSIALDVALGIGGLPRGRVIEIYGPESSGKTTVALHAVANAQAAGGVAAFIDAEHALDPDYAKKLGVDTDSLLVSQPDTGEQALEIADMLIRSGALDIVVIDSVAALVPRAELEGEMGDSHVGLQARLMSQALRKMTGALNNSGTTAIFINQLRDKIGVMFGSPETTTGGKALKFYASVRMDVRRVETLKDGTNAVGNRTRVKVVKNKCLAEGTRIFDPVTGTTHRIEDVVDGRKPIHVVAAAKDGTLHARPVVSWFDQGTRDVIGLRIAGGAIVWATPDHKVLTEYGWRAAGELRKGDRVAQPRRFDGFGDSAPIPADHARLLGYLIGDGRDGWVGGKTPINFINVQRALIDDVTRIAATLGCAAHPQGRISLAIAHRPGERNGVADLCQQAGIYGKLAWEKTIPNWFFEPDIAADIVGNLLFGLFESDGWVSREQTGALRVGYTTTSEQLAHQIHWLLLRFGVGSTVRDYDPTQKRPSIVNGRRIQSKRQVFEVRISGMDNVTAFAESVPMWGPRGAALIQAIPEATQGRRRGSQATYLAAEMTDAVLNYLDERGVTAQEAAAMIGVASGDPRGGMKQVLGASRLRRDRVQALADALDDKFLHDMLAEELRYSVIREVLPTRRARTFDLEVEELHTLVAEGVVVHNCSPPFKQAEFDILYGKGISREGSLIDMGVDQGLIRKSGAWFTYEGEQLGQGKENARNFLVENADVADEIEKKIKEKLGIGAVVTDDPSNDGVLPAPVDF
Kind of assay: Fluorescence Cell-Free Homogeneous Dose Retest to Identify Inhibitors of RecA-Intein Splicing Activity. [Related pubchem assays (depositor defined):AID2097, AID2223, AID489010, AID492950]. The assay is classed as functional.

The target of the next assay is T9, Coagulation factor XII (Homo sapiens, UniProt P00748).
T9 sequence (P00748 whole entry): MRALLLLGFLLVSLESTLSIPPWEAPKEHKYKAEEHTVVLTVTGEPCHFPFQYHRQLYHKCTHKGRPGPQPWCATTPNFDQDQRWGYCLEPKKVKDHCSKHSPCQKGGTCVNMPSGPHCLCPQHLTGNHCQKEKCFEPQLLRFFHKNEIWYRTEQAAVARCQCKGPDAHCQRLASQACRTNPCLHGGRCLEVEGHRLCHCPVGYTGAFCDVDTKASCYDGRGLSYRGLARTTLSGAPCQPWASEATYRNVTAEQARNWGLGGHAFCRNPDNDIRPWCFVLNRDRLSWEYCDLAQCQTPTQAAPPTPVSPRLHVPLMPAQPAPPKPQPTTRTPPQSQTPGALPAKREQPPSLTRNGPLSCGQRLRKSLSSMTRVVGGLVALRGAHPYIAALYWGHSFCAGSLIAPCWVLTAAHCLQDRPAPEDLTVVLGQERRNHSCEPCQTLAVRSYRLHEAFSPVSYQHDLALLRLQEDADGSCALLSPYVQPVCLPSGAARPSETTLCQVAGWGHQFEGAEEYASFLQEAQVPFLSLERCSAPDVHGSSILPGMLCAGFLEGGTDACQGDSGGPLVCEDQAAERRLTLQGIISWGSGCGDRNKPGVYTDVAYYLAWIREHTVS
Kind of assay: FXIIa inhibitor potency, concentration-response, biochemical (AID 716). The assay is classed as functional.

The target in assay [19] is T10, E3 ubiquitin-protein ligase XIAP (Homo sapiens, UniProt P98170). Description: Counter Screen using XIAP-Bir3 of the Chemical Antagonists of IAP-family anti-apoptotic proteins confirmation assay. [Related pubchem assays (depositor defined):AID1018, AID1449, AID1513, AID1638, AID1749, AID1750, AID488957, AID488963].
T10 sequence (P98170 whole entry): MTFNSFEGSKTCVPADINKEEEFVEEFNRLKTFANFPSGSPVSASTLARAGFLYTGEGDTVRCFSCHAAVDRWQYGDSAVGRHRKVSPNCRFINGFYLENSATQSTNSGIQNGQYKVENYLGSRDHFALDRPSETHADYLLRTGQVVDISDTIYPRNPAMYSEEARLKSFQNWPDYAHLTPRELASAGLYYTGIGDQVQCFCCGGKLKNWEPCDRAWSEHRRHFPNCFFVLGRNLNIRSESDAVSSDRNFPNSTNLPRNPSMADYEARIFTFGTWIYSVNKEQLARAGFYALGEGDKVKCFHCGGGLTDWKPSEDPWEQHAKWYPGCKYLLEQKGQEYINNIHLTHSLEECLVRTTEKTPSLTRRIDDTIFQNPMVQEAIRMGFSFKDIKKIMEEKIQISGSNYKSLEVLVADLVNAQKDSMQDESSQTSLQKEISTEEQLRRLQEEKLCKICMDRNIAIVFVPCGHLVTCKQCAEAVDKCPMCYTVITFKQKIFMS
The target in assay [20] is T10, E3 ubiquitin-protein ligase XIAP. Kind of assay: Chemical Antagonists of IAP-family anti-apoptotic proteins confirmation. [Related pubchem assays (depositor defined):AID1018, AID1513, AID1514, AID1638, AID1749, AID1750, AID488957, AID488963].
The target in a further assay is T11, Leucine aminopeptidase (Plasmodium falciparum 3D7, UniProt Q8IL11).
T11 sequence (Q8IL11 whole entry): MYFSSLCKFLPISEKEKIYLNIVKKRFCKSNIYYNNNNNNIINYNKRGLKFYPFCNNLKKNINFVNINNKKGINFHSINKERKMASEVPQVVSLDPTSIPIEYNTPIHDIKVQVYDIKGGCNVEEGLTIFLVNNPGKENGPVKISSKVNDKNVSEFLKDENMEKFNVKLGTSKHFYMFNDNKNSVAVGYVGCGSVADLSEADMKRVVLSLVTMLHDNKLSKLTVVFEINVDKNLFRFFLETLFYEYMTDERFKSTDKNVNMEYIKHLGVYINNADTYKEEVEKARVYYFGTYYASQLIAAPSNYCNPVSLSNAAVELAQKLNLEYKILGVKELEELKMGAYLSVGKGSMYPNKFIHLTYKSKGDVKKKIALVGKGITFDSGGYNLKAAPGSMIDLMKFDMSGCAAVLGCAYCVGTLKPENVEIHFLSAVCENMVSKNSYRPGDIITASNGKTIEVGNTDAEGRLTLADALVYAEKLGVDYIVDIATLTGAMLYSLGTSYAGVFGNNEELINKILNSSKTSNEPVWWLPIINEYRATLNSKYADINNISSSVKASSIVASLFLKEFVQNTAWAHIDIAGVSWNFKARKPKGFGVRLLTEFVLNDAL
Kind of assay: P. falciparum M17LAP inhibitors, primary screen, biochemical, fluorogenic H-Leu-NHMec substrate, 1536-well (AID 1619). The assay is classed as functional.
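Wherever IC50 Mean is given: confirmatory dose-response retesting of NadD inhibitor hits first found in an ultra-high-throughput screen.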

T4 sequence (P65502 whole entry): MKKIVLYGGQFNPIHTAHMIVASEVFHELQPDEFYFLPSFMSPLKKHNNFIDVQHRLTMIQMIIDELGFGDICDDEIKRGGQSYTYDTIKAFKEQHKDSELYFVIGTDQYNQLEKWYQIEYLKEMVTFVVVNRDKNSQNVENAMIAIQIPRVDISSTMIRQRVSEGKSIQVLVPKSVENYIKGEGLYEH
Induced myeloid leukemia cell differentiation protein Mcl-1, sequence (Q07820 whole entry): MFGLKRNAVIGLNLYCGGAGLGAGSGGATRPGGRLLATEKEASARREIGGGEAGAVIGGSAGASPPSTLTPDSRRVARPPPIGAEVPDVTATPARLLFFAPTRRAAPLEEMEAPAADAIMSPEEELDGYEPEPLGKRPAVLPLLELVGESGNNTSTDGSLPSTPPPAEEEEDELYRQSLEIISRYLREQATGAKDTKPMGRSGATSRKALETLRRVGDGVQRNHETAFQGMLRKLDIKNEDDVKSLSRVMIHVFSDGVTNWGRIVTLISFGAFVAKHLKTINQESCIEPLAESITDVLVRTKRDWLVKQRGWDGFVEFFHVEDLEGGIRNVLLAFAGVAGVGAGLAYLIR

Consider `Cc1ccc(Cn2c(=N)c(C(=O)NCc3ccco3)cc3c(=O)n4ccccc4nc32)cc1`, for which the IC50 in [1] is 0.475 µM (active); in assay [2] it was 15.3 µM (active); in [3], 3.14 µM (active).
For `CCCCCCC#Cc1cncc(C(=O)NNC(=O)Nc2cc(Cl)cc(Cl)c2)c1`, on SUMO-activating enzyme, the IC50 is 59.8 µM (active). Moreover, the CC50 in [4] was 9.35 µM (active).
For `O=C(Nc1ccc(S(=O)(=O)Nc2nccs2)cc1)c1cc(-c2ccncc2)nc2ccccc12`, the IC50 at Cannabinoid receptor 1 [5] was 2.23 µM (active); at Cannabinoid receptor 2 [6] it was > 32 µM (inactive); in [8], > 32 µM (inactive); in assay [9] it was 6.6 µM (active); in [3], 1.64 µM (active); in [11], 21.6 µM (active). The IC50 in assay [13] is > 32 µM (inactive). Also, the EC50 (at Cannabinoid receptor 2 [7]; in assay [10]; at Cannabinoid receptor 1 [12]) was > 32 µM (inactive) in each case.
In the case of `CC(NC(=O)COC(=O)c1cc(NS(=O)(=O)c2ccc(Cl)c([N+](=O)[O-])c2)ccc1O)C1CC2CCC1C2` (stereo not given), the results for the AC50 in assay [14] and in assay [15] were 2.01 µM (active) and 3.17 µM (active), respectively. The IC50 on Fatty acid synthase [16] was 11.7 µM (active); on Fatty acid synthase [17], 11.1 µM (active). Further, in assay [18], the CC50 is 32.7 µM (active). Further, the EC50 at Protein RecA was 3.7 µM (active).
Take `CCCS(=O)(=O)N1CCN(c2ccccc2F)CC1`: the IC50 on Coagulation factor XII is > 50 µM (inactive).
For the molecule `O=C(O)[C@H](Cc1ccccc1)N1Cc2ccccc2C1=O`, the IC50 in assay [19] is > 200 µM (inactive); in assay [20] it was 131 µM (inactive); on Leucine aminopeptidase, 6.47 µM (active).
